Assay results reported in ChEMBL document CHEMBL1139731, “Identification of non-furan containing A2A antagonists using database mining and molecular similarity approaches” (Bioorg Med Chem Lett, 2006).
pKi: −log10 of the molar value.

Experiments:
Adenosine receptor A1 = target: T1, Adenosine receptor A1 (Homo sapiens, UniProt P30542); experiment: Displacement of [3H]DPCPX from recombinant adenosine A1 receptor
T1 sequence (P30542 whole entry): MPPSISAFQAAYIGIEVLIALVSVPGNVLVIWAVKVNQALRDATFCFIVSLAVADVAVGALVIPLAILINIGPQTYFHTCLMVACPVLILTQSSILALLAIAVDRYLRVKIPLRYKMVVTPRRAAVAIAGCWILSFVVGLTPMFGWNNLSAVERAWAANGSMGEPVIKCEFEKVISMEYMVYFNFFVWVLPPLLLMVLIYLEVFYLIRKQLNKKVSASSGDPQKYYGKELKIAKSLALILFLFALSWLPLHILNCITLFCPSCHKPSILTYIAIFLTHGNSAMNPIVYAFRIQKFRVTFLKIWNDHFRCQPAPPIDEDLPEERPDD

Adenosine receptor A2a = Adenosine receptor A2a (Homo sapiens, UniProt P29274); experiment: Displacement of [3H]CGS21680 from human recombinant adenosine A2A receptor
Adenosine receptor A2a, sequence (P29274 whole entry): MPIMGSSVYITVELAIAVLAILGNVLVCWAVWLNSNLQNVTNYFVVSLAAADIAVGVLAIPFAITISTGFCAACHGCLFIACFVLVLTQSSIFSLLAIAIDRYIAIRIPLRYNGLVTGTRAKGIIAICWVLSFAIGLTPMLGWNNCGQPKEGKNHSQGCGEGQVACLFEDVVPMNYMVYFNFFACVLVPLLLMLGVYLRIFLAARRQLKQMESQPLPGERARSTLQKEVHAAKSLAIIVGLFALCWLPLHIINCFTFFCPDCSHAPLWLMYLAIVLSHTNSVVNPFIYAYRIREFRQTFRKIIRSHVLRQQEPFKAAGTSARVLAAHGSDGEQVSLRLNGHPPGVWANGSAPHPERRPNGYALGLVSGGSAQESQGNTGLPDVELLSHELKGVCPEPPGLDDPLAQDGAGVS

Ki (Adenosine receptor A1)	Ki (Adenosine receptor A2a)	pKi (Adenosine receptor A1)	SMILES
–	0.29 µM (antagonist)	< 5.00	COc1cccc(-c2cc(C(F)(F)F)nc(NCc3ccc(F)cc3)n2)c1
0.067 µM (antagonist)	0.005 µM (antagonist)	–	CCSc1nc(N)nc(-c2ccccc2)n1
0.192 µM (antagonist)	0.201 µM (antagonist)	–	N#Cc1c(-c2ccc(Cl)cc2)cc(-c2ccccc2)nc1N
0.218 µM (antagonist)	0.031 µM (antagonist)	–	CSc1nc(N)nc(-c2cccc(-c3ccc4[nH]ccc4c3)c2)n1
1.74 µM (antagonist)	0.403 µM (antagonist)	–	N#Cc1c(-c2ccc(Cl)cc2)cc(-c2ccccc2Cl)nc1N
0.274 µM (antagonist)	0.118 µM (antagonist)	–	Cc1ccc(-c2cc(-c3ccccc3)nc(N)c2C#N)cc1
0.059 µM (antagonist)	0.087 µM (antagonist)	–	N#Cc1c(-c2ccc(F)cc2)cc(-c2ccccc2)nc1N
–	0.21 µM (antagonist)	< 5.00	N#Cc1c(-c2ccc(Cl)c(Cl)c2)cc(-c2cccnc2)nc1N

Further lines, the molecule ahead of its results:

SMILES	Ki (Adenosine receptor A1)	Ki (Adenosine receptor A2a)	pKi (Adenosine receptor A1)
N#Cc1c(-c2ccc(F)cc2)cc(C2CC2)nc1N	0.865 µM (antagonist)	0.106 µM (antagonist)	–
N#Cc1c(-c2ccccc2Cl)cc(-c2ccccc2)nc1N	0.239 µM (antagonist)	0.089 µM (antagonist)	–
N#Cc1c(N)nc2c(c1-c1ccc(F)cc1)CCC2	–	0.232 µM (antagonist)	–
Fc1ccc(CNc2nc(-c3ccccc3)cc(C(F)(F)F)n2)cc1	–	0.287 µM (antagonist)	< 5.00
Fc1ccc(CNc2nc(-c3cccs3)cc(C(F)(F)F)n2)cc1	–	0.287 µM (antagonist)	< 5.00
CCOc1cc(-c2cc(-c3ccc(O)cc3)nc(N)c2C#N)ccc1O	0.042 µM (antagonist)	0.267 µM (antagonist)	–
Fc1ccc(CNc2nc(-c3ccc(Cl)cc3)cc(C(F)(F)F)n2)cc1	–	0.454 µM (antagonist)	< 5.00
COc1cc(-c2cc(-c3ccc(O)cc3)nc(N)c2C#N)ccc1O	0.094 µM (antagonist)	0.151 µM (antagonist)	–
COc1ccc(-c2cccc(-c3nc(N)nc(SC)n3)c2)cn1	0.84 µM (antagonist)	0.023 µM (antagonist)	–
